The source of these data is US10392383B2, “3-(1H-benzo[d]imidazol-2-yl)-1H-pyrazolo[4,3-b]pyridines and therapeutic uses thereof” (Samumed, LLC, priority 2015, dated 2019).

Assay [1] relates to primary human fibroblasts derived from IPF patients (LL29 cells) treated with TGF-β1. As to the kind of experiment: Inhibition of the fibrotic process: αSMA staining in TGF-β1-treated LL29 fibroblasts. In kind it is cell-based. The following applies: Fibroblast; for inhibition at 10 µM: LL29 fibroblasts treated with TGF-β1, Table 4, read-out: percent inhibition at 10 μM (given in parentheses for EC50 >10 μM); for EC50: 96 h, LL29 fibroblasts treated with TGF-β1 (20 ng/mL), 4 days, Table 4. An excerpt:
Representative compounds were screened using primary human fibroblasts (derived from IPF patients) treated with TGF-β1 to determine their ability to inhibit the fibrotic process.
Human Fibroblast Cell Culture: Primary human fibroblasts derived from IPF patients (LL29 cells) [^1Xiaoqiu Liu, et. al., “Fibrotic Lung Fibroblasts Show Blunted Inhibition by cAMP Due to Deficient cAMP Response Element-Binding Protein Phosphorylation”, Journal of Pharmacology and Experimental Therapeutics (2005), 315(2), 678-687; ^2Watts, K. L., et. al., “RhoA signaling modulates cyclin D1 expression in human lung fibroblasts; implications for idiopathic pulmonary fibrosis”, Respiratory Research (2006), 7(1), 88] were obtained from American Type Culture Collection (ATCC) and expanded in F12 medium supplemented with 15% Fetal Bovine Serum and Penicillin/Streptomycin.
Compound Screening: Each compound was dissolved in DMSO as a 10 mM stock and used to prepare compound source plates. Serial dilution (1:2, 11-point dose-response curves from 10 μM to […]) and compound transfer was performed using the ECHO 550 (Labcyte, Sunnyvale, Calif.) into 384-well clear bottom assay plates (Greiner Bio-One) with appropriate DMSO backfill for a final DMSO concentration of 0.1%. LL29 cells are plated at 1,500 cells/well in 80 μL/well F12 medium supplemented with 1% Fetal Bovine Serum. One hour after addition of the cells, TGF-β1 (Peprotech; 20 ng/mL) was added to the plates to induce fibrosis (ref. 1 and 2 above). Wells treated with TGF-β1 and containing DMSO were used as controls. Cells were incubated at 37° C. and 5% CO2 for 4 days. Following incubation for 4 days, SYTOX green nucleic acid stain (Life Technologies [Thermo Fisher Scientific]) was added to the wells at a final concentration of 1 μM and incubated at room temperature for 30 min. Cells were then fixed using 4% formaldehyde (Electron Microscopy Sciences), washed 3 times with PBS followed by blocking and permeabilization using 3% Bovine Serum Albumin (BSA; Sigma) and 0.3% Triton X-100 (Sigma) in PBS. Cells were then stained with antibody specific to α-smooth muscle actin (αSMA; Abcam) (ref. 1 and 2 above) in 3% Bovine Serum Albumin (BSA; Sigma) and 0.3% Triton X-100 (Sigma) in PBS, and incubated overnight at 4° C. Cells were then washed 3 times with PBS, followed by incubation with Alexa Flor-647 conjugated secondary antibody (Life Technologies [Thermo Fisher Scientific]) and DAPI at room temperature for 1 hour. Cells were then washed 3 times with PBS and plates were sealed for imaging. αSMA staining was imaged by excitation at 630 nm and emission at 665 nm and quantified using the Compartmental Analysis program on the CellInsight CX5 (Thermo Scientific). Dead or apoptotic cells were excluded from analysis based on positive SYTOX green staining. % of total cells positive for αSMA were counted in each well and normalized to the average of 11 wells treated with TGF-β1 on the same plate using Dotmatics' Studies Software. The normalized averages (fold change over untreated) of 3 replicate wells for each compound concentration were used to create dose-responses curves and EC50 values were calculated using non-linear regression curve fit in the Dotmatics' Studies Software. For EC50 of >10 μM, the percent inhibition at 10 μM is provided.

Assay [2] has as its system Wnt activity (Sp5-Luc reporter, Wnt-responsive promoter) in SW480 colon carcinoma cells. As to the kind of experiment: Wnt activity screening assay: Sp5-Luc reporter gene assay in SW480 cells. In kind it is cell-based. As to conditions: Homo sapiens; for inhibition at 10 µM: read-out: percent inhibition at 10 μM (given for EC50 of >10 μM); for EC50: overnight incubation, 10-point curve starting from 10 μM. From the text:
The screening assay for Wnt activity is described as follows. Reporter cell lines can be generated by stably transducing cancer cell lines (e.g., colon cancer) or primary cells (e.g., IEC-6 intestinal cells) with a lentiviral construct that includes a Wnt-responsive promoter driving expression of the firefly luciferase gene.
SW480 colon carcinoma cells were transduced with a lentiviral vector expressing luciferase with a human Sp5 promoter consisting of a sequence of eight TCF/LEF binding sites. SW480 cells stably expressing the Sp5-Luc reporter gene and a hygromycin resistance gene were selected by treatment with 150 μg/mL of hygromycin for 7 days. These stably transduced SW480 cells were expanded in cell culture and used for all further screening activities. Each compound was dissolved in DMSO as a 10 mM stock and used to prepare compound source plates. Serial dilution (1:3, 10-point dose-response curves starting from 10 μM) and compound transfer was performed using the ECHO 550 (Labcyte, Sunnyvale, Calif.) into 384-well white solid bottom assay plates (Greiner Bio-One) with appropriate DMSO backfill for a final DMSO concentration of 0.1%. For Sp5-Luc reporter gene assays, the cells were plated at 4,000 cells/well in 384-well plates with medium containing 1% fetal bovine serum and incubated overnight at 37° C. and 5% CO2. Following incubation, 20 μl of BrightGlo luminescence reagent (Promega) was added to each well of the 384-well assay plates. The plates were placed on an orbital shaker for 2 min and then luminescence was quantified using the Envision (Perkin Elmer) plate reader. Readings were normalized to DMSO only treated cells, and normalized activities were utilized for EC50 calculations using the dose-response log (inhibitor) vs. response-variable slope (four parameters) nonlinear regression feature available in GraphPad Prism 5.0 (or Dotmatics). For EC50 of >10 μM, the percent inhibition at 10 μM is provided.
For orientation: A reporter such as luciferase makes a cellular process visible.

Take `CCCC(=O)Nc1cncc(-c2ccc3[nH]nc(-c4nc5c(-c6ccncc6)cccc5[nH]4)c3n2)c1` [Compound 129, N-(5-(3-(4-(Pyridin-4-yl)-1H-benzo[d]imidazol-2-yl)-1H-pyrazolo[4,3-b]pyridin-5-yl)pyridin-3-yl)butyramide]: the inhibition at 10 µM in assay [1] and in assay [2] was 0% in each case. Moreover, the EC50 in assay [1] and in assay [2] was > 10 µM in each case.
As for `c1cc(-c2ccncc2)c2nc(-c3n[nH]c4ccc(-c5ccncc5)nc34)[nH]c2c1` [Compound 130, 5-(Pyridin-4-yl)-3-(4-(pyridin-4-yl)-1H-benzo[d]imidazol-2-yl)-1H-pyrazolo [4,3-b]pyridine], the EC50 is 1.07 µM in assay [1] and > 10 µM in assay [2]. The inhibition at 10 µM in assay [2] turned out to be 39.7%.
For `O=C(Nc1cncc(-c2ccc3[nH]nc(-c4nc5c(-c6ccncc6)cccc5[nH]4)c3n2)c1)C1CCCCC1` [Compound 135, N-(5-(3-(4-(pyridin-4-yl)-1H-benzo[d]imidazol-2-yl)-1H-pyrazolo[4,3-b]pyridin-5-yl)pyridin-3-yl)cyclohexanecarboxamide], the inhibition at 10 µM is 0% in assay [1] and 5.4% in assay [2]. The EC50 in assay [1] and in assay [2] was > 10 µM in each case.
As for `CCNCc1cncc(-c2ccc3[nH]nc(-c4nc5c(-c6ccccn6)cccc5[nH]4)c3n2)c1` [Compound 146, N-((5-(3-(4-(Pyridin-2-yl)-1H-benzo[d]imidazol-2-yl)-1H-pyrazolo[4,3-b]pyridin-5-yl)pyridin-3-yl)methyl)ethanamine], the midpoint of the response in assay [1], the EC50, lay at 3.68 µM. Further, in assay [2], the inhibition at 10 µM stood at 41.6% and the EC50 is > 10 µM.
The matching figures for `O=C(Nc1cncc(-c2ccc3[nH]nc(-c4nc5c(-c6ccccn6)cccc5[nH]4)c3n2)c1)c1ccccc1` [Compound 151, N-(5-(3-(4-(Pyridin-2-yl)-1H-benzo[d]imidazol-2-yl)-1H-pyrazolo[4,3-b]pyridin-5-yl)pyridin-3-yl)benzamide]: 5.11 µM, 34.2% and > 10 µM.
The matching figures for `CCCCC(=O)Nc1cncc(-c2ccc3[nH]nc(-c4nc5c(-c6ccccn6)cccc5[nH]4)c3n2)c1` [Compound 159, N-(5-(3-(4-(Pyridin-2-yl)-1H-benzo[d]imidazol-2-yl)-1H-pyrazolo[4,3-b]pyridin-5-yl)pyridin-3-yl)pentanamide]: 0.948 µM, 11.3% and > 10 µM.
As to `CCC(=O)Nc1cncc(-c2ccc3[nH]nc(-c4nc5c(N6CCCCC6)cccc5[nH]4)c3n2)c1` [Compound 169, N-(5-(3-(4-(Piperidin-1-yl)-1H-benzo[d]imidazol-2-yl)-1H-pyrazolo[4,3-b]pyridin-5-yl)pyridin-3-yl)propionamide], the half-maximal effective concentration (EC50) in assay [1] amounted to 0.158 µM; in assay [2], 3.79 µM.
The matching figures for `CN(C)c1cncc(-c2ccc3[nH]nc(-c4nc5c(N6CCCCC6)cccc5[nH]4)c3n2)c1` [Compound 175, N,N-dimethyl-5-(3-(4-(piperidin-1-yl)-1H-benzo[d]imidazol-2-yl)-1H-pyrazolo[4,3-b]pyridin-5-yl)pyridin-3-amine]: 4.69 µM and 2.13 µM.
In the case of `CN(C)Cc1cncc(-c2ccc3[nH]nc(-c4nc5c(N6CCCCC6)cccc5[nH]4)c3n2)c1` [Compound 181, N,N-dimethyl-1-(5-(3-(4-(piperidin-1-yl)-1H-benzo[d]imidazol-2-yl)-1H-pyrazolo[4,3-b]pyridin-5-yl)pyridin-3-yl)methanamine], the values for the EC50 in assay [1] and in assay [2] were 0.785 µM and 1.89 µM, respectively.
Turning to `CN1CCN(c2cccc3[nH]c(-c4n[nH]c5ccc(-c6cncc(N)c6)nc45)nc23)CC1` [Compound 227, 5-(3-(4-(4-Methylpiperazin-1-yl)-1H-benzo[d]imidazol-2-yl)-1H-pyrazolo [4,3-b]pyridin-5-yl)pyridin-3-amine], the inhibition at 10 µM in assay [1] was found to be 32.1%; in assay [2] it was 48.8%. The EC50 in assay [1] and in assay [2] was > 10 µM in each case.
Turning to `CC(C)C(=O)Nc1cncc(-c2ccc3[nH]nc(-c4nc5c(N6CCN(C)CC6)cccc5[nH]4)c3n2)c1` [Compound 233, N-(5-(3-(4-(4-Methylpiperazin-1-yl)-1H-benzo[d]imidazol-2-yl)-1H-pyrazolo[4,3-b]pyridin-5-yl)pyridin-3-yl)isobutyramide], in assay [1], the inhibition at 10 µM is 24.7% and the EC50 is > 10 µM. Besides, in assay [2], the inhibition at 10 µM is 7.3% and the EC50 was > 10 µM.
Molecule `CN1CCN(c2cccc3[nH]c(-c4n[nH]c5ccc(-c6cncnc6)nc45)nc23)CC1` [Compound 251, 3-(4-(4-Methylpiperazin-1-yl)-1H-benzo[d]imidazol-2-yl)-5-(pyrimidin-5-yl)-1H-pyrazolo[4,3-b]pyridine] came in with a concentration for a half-maximal effect (EC50) in assay [1] of 2.43 µM. In assay [2], the inhibition at 10 µM stood at 4.7% and the EC50 was > 10 µM.
In the case of `O=C(Cc1ccccc1)Nc1cncc(-c2ccc3[nH]nc(-c4nc5ccccc5[nH]4)c3n2)c1` [Compound 262, N-(5-(3-(1H-Benzo[d]imidazol-2-yl)-1H-pyrazolo[4,3-b]pyridin-5-yl)pyridin-3-yl)-2-phenylacetamide], in assay [1], the inhibition at 10 µM is 0% and the EC50 is > 10 µM. Further, in assay [2], the inhibition at 10 µM was 11.2% and the EC50 is > 10 µM.
Consider `O=C(Nc1cncc(-c2ccc3[nH]nc(-c4nc5c(-c6ccsc6)cccc5[nH]4)c3n2)c1)c1ccccc1` [Compound 291, N-(5-(3-(4-(Thiophen-3-yl)-1H-benzo[d]imidazol-2-yl)-1H-pyrazolo[4,3-b]pyridin-5-yl)pyridin-3-yl)benzamide], for which the EC50 is 2.62 µM in assay [1] and > 10 µM in assay [2]. The inhibition at 10 µM in assay [2] came out at 42.5%.
For the molecule `Cc1ccc(-c2cccc3[nH]c(-c4n[nH]c5ccc(-c6cncc(NC(=O)C7CCCC7)c6)nc45)nc23)s1` [Compound 414, N-(5-(3-(4-(5-Methylthiophen-2-yl)-1H-benzo[d]imidazol-2-yl)-1H-pyrazolo [4,3-b]pyridin-5-yl)pyridin-3-yl)cyclopentanecarboxamide], in assay [1], the inhibition at 10 µM came out at 42.2% and the EC50 was > 10 µM. Further, in assay [2], the inhibition at 10 µM is 7.2% and the concentration giving a half-maximal response (EC50) was > 10 µM.

As a reminder, the inhibition is the relative decrease from the control value, in per cent. As usually defined, the EC50 is the concentration giving half of the maximal effect. High values mean lower potency in that assay, low ones higher potency in that assay.
